This is an account of results in patent publication US20260167674A1, “ACE2 […] SEQUENCES” (priority 2023, published 2026).

No end group written: not given here.

In one experiment the target is SARS-COV-2 RBD (Severe acute respiratory syndrome coronavirus 2, UniProt P0DTC2). The experiment in a line: biochemical. It is filed as binding.
The target of experiment [1] is SARS-COV-2 RBD protein with His-tag, purified by recombinant expression in Pichia pastoris (SARS-COV-2), P0DTC2. The experiment is described as follows: SPR at 25 C; His-tagged RBD captured by anti-His tag, peptide flowed over.

In the case of “QEQAQTYLDGYNKTYQDLVYKDNLAQWTLNT [peptide2]”, the Kd (as a rule, the concentration at which binding is half-saturated) at SARS-COV-2 RBD fell in the range of 3.55 to 4.09 pM.

In the case of “EENAKTFLNNFNQEAEDLSYQSSLASWNYNT [peptide4]”, on SARS-COV-2 RBD, the Kd lay within 1.26 to 8.16 pM.

As to EENAKTFLNNFNQEAEDLSYQSSLASWNYNT (modifications not checked) [peptide4 (BAB40431.1:22-52 angiotensin-converting enzyme-related carboxypeptidase [Mus musculus])], the dissociation constant Kd in experiment [1] was in the range of 1.26 to 8.16 pM.

For QEQAQTYLDGYNKTYQDLVYKDNLAQWTLNT (modifications not checked) [peptide2 (WP_072363071.1:30-60 M2 family metallopeptidase [Chitinophaga sancti])], in experiment [1], the Kd lay within 3.55 to 4.09 pM.
